Results: ChEMBL document CHEMBL4400544, “Pharmacokinetic evaluation of medicinally important synthetic N,N' diindolylmethane glucoside: Improved synthesis and metabolic stability” (Bioorg Med Chem Lett, 2019)
In brackets after ≈: the same amount, converted by molar mass. Activity calls are given as the source filed them. The calls are words filed in the database; no cut-off is given here.

Legend:
[1] = Ratio of drug level in blood to plasma (unknown origin) at 500 nM by LC-MS/MS analysis; assay type: ADME, cell-free; details: blood and plasma
Rattus norvegicus [2] = species: Rattus norvegicus; assay: Inhibition of P-gp in rat jejuna mucosa crude membrane fractions assessed as reduction in ATPase activity preincubated for 5 mins followed by ATP addition and measured after 30 mins; assay type: cell membranes
[3] = Stability in human liver microsomes at 10 uM in presence of NADPH by LC-MS/MS analysis; assay type: ADME, Microsome; details: read-out: Stability
[4] = n-Octanol/water partition co-efficient, log P of the compound after 4 hrs by LC-MS/MS analysis; assay type: physicochemical
Rattus norvegicus [5] = species: Rattus norvegicus; assay: Inhibition of P-gp in rat jejuna mucosa crude membrane fractions assessed as ATPase activity preincubated for 5 mins followed by ATP addition and measured after 30 mins; assay type: cell membranes
[6] = Protein binding in plasma (unknown origin) at 10 to 100 uM after 4 hrs by LC-MS/MS analysis; assay type: ADME, cell-free; details: read-out: PPB
[7] = n-Octanol-PBS buffer distribution coefficient, log D of the compound after 4 hrs by LC-MS/MS analysis; assay type: physicochemical
[8] = Aqueous solubility of compound after 5 hrs at 25 degC by LC-MS/MS analysis; assay type: physicochemical; details: aqueous medium (not specified further)
[9] = Hepatic intrinsic clearance in human liver microsomes assessed per kg body weight at 10 uM in presence of NADPH by LC-MS/MS analysis; assay type: ADME, Microsome
[10] = Intrinsic clearance in human liver microsomes assessed per mg protein at 10 uM in presence of NADPH by LC-MS/MS analysis; assay type: ADME, Microsome; details: read-out: CLH
[11] = Hepatic extraction ratio in human liver microsomes at 10 uM in presence of NADPH by LC-MS/MS analysis; assay type: ADME, Microsome; details: read-out: ERH
[12] = Half life in human liver microsomes at 10 uM in presence of NADPH by LC-MS/MS analysis; assay type: ADME, Microsome
[13] = Intrinsic clearance in rat liver microsomes assessed per mg protein at 10 uM in presence of NADPH by LC-MS/MS analysis; assay type: ADME, Microsome; details: read-out: CLH
[14] = Hepatic clearance in human liver microsomes at 10 uM in presence of NADPH by LC-MS/MS analysis; assay type: ADME, Microsome
[15] = Half life in rat liver microsomes at 10 uM in presence of NADPH by LC-MS/MS analysis; assay type: ADME, Microsome
[16] = Stability in rat liver microsomes at 10 uM in presence of NADPH by LC-MS/MS analysis; assay type: ADME, Microsome; details: read-out: Stability
[17] = Hepatic clearance in rat liver microsomes at 10 uM in presence of NADPH by LC-MS/MS analysis; assay type: ADME, Microsome
[18] = Hepatic extraction ratio in rat liver microsomes at 10 uM in presence of NADPH by LC-MS/MS analysis; assay type: ADME, Microsome; details: read-out: ERH
[19] = Hepatic intrinsic clearance in rat liver microsomes assessed per kg body weight at 10 uM in presence of NADPH by LC-MS/MS analysis; assay type: ADME, Microsome

blood plasma ratio at 0.5 µM [1] | inhibition (Rattus norvegicus [2]) | remaining at 10 µM [3] [%] | logP at 4 h [4] | Activity (Rattus norvegicus [5]) [µM/min] | fraction unbound at 4 h, up to 100 µM [6] | logD at 4 h [7] | solubility at 5 h [8] [µg/mL] | CLH [9] [mL/min/kg] | microsomal CLint at 10 µM [10] [µL/min/mg] | hepatic extraction ratio at 10 µM [11] | half-life at 10 µM [12] [h] | microsomal CLint at 10 µM [13] [µL/min/mg] | CLH [14] [mL/min/kg] | half-life at 10 µM [15] [h] | remaining at 10 µM [16] [%] | CLH [17] [mL/min/kg] | hepatic extraction ratio at 10 µM [18] | CLH [19] [mL/min/kg] | SMILES
≤ 1.2 | – | – | – | – | – | – | – | – | – | – | – | – | – | – | – | – | – | – | CC(C)NCC(O)COc1ccc(CC(N)=O)cc1 (stereo not given) [ATENOLOL]
– | Active | – | – | – | – | – | – | – | – | – | – | – | – | – | – | – | – | – | O[C@@H](COc1cccc2ncccc12)CN1CCN([C@@H]2c3ccccc3[C@@H]3[C@H](c4ccccc42)C3(F)F)CC1
≤ 1.4 | – | > 73 | 1.06 | 5.5 to 6.1 | < 0.01 | 0.08 | 5.8 (≈ 7.02 µM) | 22.3 | 19 | 0.5 | 1.35 | 20 | 10.6 | 1.16 | > 73 | 21.7 | 0.39 | 35.9 | CCCCCCCC(c1cn([C@@H]2O[C@H](CO)[C@@H](O)[C@H](O)[C@H]2O)c2ccc(Br)cc12)c1cn([C@@H]2O[C@H](CO)[C@@H](O)[C@H](O)[C@H]2O)c2ccc(Br)cc12
